Measured values from patent publication US11358965B2, “EGFR dimer disruptors and use of the same” (THE REGENTS OF THE UNIVERSITY OF MICHIGAN, priority 2018, dated 2022).
Structures can show the parent of a compound that is named as a salt.

What was measured:
cells = assay: Cell Titer Blue % cell viable (24 hrs); type: cell-based; conditions: 24 h; for viability at 30 µM: Conc 30 μM; for viability at 15 µM: Conc 15 μM; for viability at 7.5 µM: Conc 7.5 μM
Experimental: The viability of cells upon treatment was assessed by CellTiter-Blue® reagent following the manufacturer's protocol in RKO, UM10B, UM1, MCR5, and UMCC92 cells. Briefly, 10,000 cells were plated in 96-well plate in quadruplets. One day after seeding, cells were treated with a range of concentrations (0.1 to 30 micromolar). […] Only the viable cells convert the redox dye (reszurin) into a fluorescent product (resofurin). The emission of fluorescence (excitation 560 nm) was measured at […]. The IC50 value was calculated as the mean concentration of compounds required to inhibit cell proliferation as measured by the fluorescence at […] by 50 percent compared to the vehicle-treated controls.

RKO cells = assay: Clonogenic IC50, RKO; type: cell-based; conditions: Homo sapiens
UM1 cells = assay: Clonogenic IC50, UM1; type: cell-based
UMCC92 cells = assay: Clonogenic IC50, UMCC92; type: cell-based
UM10B cells = assay: Clonogenic IC50, UM10B; type: cell-based
MCR5 cells = assay: Clonogenic IC50, MCR5; type: cell-based
Experimental: It was determined if the response to Compound 8C correlates with inhibition of EGF-induced dimerization and degradation of EGFR. For this, PC9-AZR cells were treated for 1 hour with 1 μM Compound 8C and an additional 30 minutes with EGF (30 ng/ml) and 30 minutes with disuccinimidyl suberate (DSS, 150 μM) to cross-link interacting proteins. Lysates were prepared and immunoblotted with anti-EGFR antibodies.
The viability of cells upon treatment was assessed by CellTiter-Blue® reagent following the manufacturer's protocol in RKO, UM10B, UM1, MCR5, and UMCC92 cells. Briefly, 10,000 cells were plated in 96-well plate in quadruplets. One day after seeding, cells were treated with a range of concentrations (0.1 to 30 micromolar). 3-days post-treatment, cells were incubated with the CellTiter-Blue® reagent for 4 hr. Only the viable cells convert the redox dye (reszurin) into a fluorescent product (resofurin). The emission of fluorescence (excitation 560 nm) was measured at […]. The IC50 value was calculated as the mean concentration of compounds required to inhibit cell proliferation as measured by the fluorescence at […] by 50 percent compared to the vehicle-treated controls.

[1] = tested on: Ba/F3-AZR cells (L858R+T790M+C797S-EGFR); assay: Osimertinib resistant Ba/F3-AZR ascites tumor model; type: in vivo, nude mice; conditions: mouse, in vivo, 30 mg/kg

Row | IC50 (RKO cells) | IC50 (UM1 cells) | IC50 (UMCC92 cells) | IC50 (UM10B cells) | IC50 (MCR5 cells; MCR5, MCR5) | IC50 (MCR5 cells; MCR5) | Compound | viability at 30 µM (cells) | viability at 15 µM (cells) | viability at 7.5 µM (cells) | survival [1]
1 | 9.8 µM | 7.8 µM | – | – | – | – | COc1ccc(C2=NC3(CCN(C(=O)OC(C)(C)C)CC3)N(CC(=O)Nc3ccc(OC)c(Cl)c3)C2=O)cc1 [Compound 3, tert-Butyl 4-(2-((3-chloro-4-methoxyphenyl)amino)-2-oxoethyl)-2-(4-methoxyphenyl)-3-oxo-1,4,8-triazaspiro[4.5]dec-1-ene-8-carboxylate] | 70% | – | – | –
2 | 11.6 µM | 0.9 µM | 34 µM | – | – | – | COc1ccc(C2=NC3(CCN(C)CC3)N(CC(=O)Nc3ccc(OC)c(Cl)c3)C2=O)cc1 [Compound 5, N-(3-chloro-4-methoxyphenyl)-2-(3-(4-methoxyphenyl)-8-methyl-2-oxo-1,4,8-triazaspiro[4.5]dec-3-en-1-yl)acetamide] | – | 60% | – | –
3 | 8.8 µM | 1 µM | – | – | – | – | COc1ccc(NC(=O)CSC2=NC3(CCN(C)CC3)N=C2c2ccc(Br)cc2)cn1 [Compound 8A, 2-((3-(4-bromophenyl)-8-methyl-1,4,8-triazaspiro[4.5]deca-1,3-dien-2-yl)thio)-N-(6-methoxypyridin-3-yl)acetamide] | 58% | – | – | –
4 | 5.3 µM | 0.8 µM | – | – | – | – | CN1CCC2(CC1)N=C(SCC(=O)Nc1ccc(Cl)nc1)C(c1ccc(Br)cc1)=N2 [Compound 8B, 2-((3-(4-bromophenyl)-8-methyl-1,4,8-triazaspiro[4.5]deca-1,3-dien-2-yl)thio)-N-(6-chloropyridin-3-yl)acetamide] | – | 50% | – | –
5 | 7.3 µM | 0.8 µM | – | – | – | – | CN1CCC2(CC1)N=C(SCC(=O)Nc1ccncc1)C(c1ccc(Br)cc1)=N2 [Compound 8D, 2-((3-(4-bromophenyl)-8-methyl-1,4,8-triazaspiro[4.5]deca-1,3-dien-2-yl)thio)-N-(pyridin-4-yl)acetamide] | – | – | 64% | –
6 | 14.1 µM | 1.9 µM | – | – | – | – | CN1CCC2(CC1)N=C(SCC(=O)NC1CCCCC1)C(c1ccc(Br)cc1)=N2 [Compound 8E, 2-((3-(4-bromophenyl)-8-methyl-1,4,8-triazaspiro[4.5]deca-1,3-dien-2-yl)thio)-N-cyclohexylacetamide] | 84% | – | – | –
7 | 17.4 µM | 1 µM | – | – | – | – | CN1CCC2(CC1)N=C(SCC(=O)NC1CCCC1)C(c1ccc(Br)cc1)=N2 [Compound 8F, 2-((3-(4-bromophenyl)-8-methyl-1,4,8-triazaspiro[4.5]deca-1,3-dien-2-yl)thio)-N-cyclopentylacetamide] | 62% | – | – | –
8 | 8.5 µM | 1.6 µM | – | – | – | – | CN1CCC2(CC1)N=C(SCC(=O)NCc1ccccc1)C(c1ccc(Br)cc1)=N2 [Compound 8G, N-benzyl-2-((3-(4-bromophenyl)-8-methyl-1,4,8-triazaspiro[4.5]deca-1,3-dien-2-yl)thio)acetamide] | 40% | – | – | –
9 | 21.8 µM | 1.7 µM | – | – | – | – | COc1ccc(C2=NC3(CCN(C(=O)OC(C)(C)C)CC3)N=C2SCC(=O)Nc2ccc(OC)nc2)cc1 [Compound 10, tert-Butyl 2-(4-methoxyphenyl)-3-((2-((6-methoxypyridin-3-yl)amino)-2-oxoethyl)thio)-1,4,8-triazaspiro[4.5]deca-1,3-diene-8-carboxylate] | 81% | – | – | –
10 | 26 µM | 1.3 µM | – | – | – | – | COc1ccc(C2=NC3(CCNCC3)N=C2SCC(=O)Nc2ccc(OC)nc2)cc1 [Compound 11, 2-((3-(4-methoxyphenyl)-1,4,8-triazaspiro[4.5]deca-1,3-dien-2-yl)thio)-N-(6-methoxypyridin-3-yl)acetamide hydrochloride] | 52% | – | – | –
11 | 34 µM | 1.2 µM | – | – | – | – | COc1ccc(C2=NC3(CCN(C)CC3)N=C2SCC(=O)Nc2ccc(OC)nc2)cc1 [Compound 12, 2-((3-(4-methoxyphenyl)-8-methyl-1,4,8-triazaspiro[4.5]deca-1,3-dien-2-yl)thio)-N-(6-methoxypyridin-3-yl)acetamide] | 78% | – | – | –
12 | 50.7 µM | – | – | 17.2 µM | 37 µM | – | COc1ccc(NC(=O)CN2C(=O)C(c3ccc(C(C)(C)C)cc3)=NC2(C)C)cc1Cl [Compound 15] | 119% | – | – | –
13 | 43.9 µM | – | – | 38 µM | – | 1320 µM | COc1ccc(NC(=O)CN2C(=O)C(c3ccc(F)cc3)=NC2(C)C)cc1Cl [Compound 16] | 122% | – | – | –
14 | 6.7 µM | – | – | 2.5 µM | 25.9 µM | – | CC1(C)N=C(SCC(=O)Nc2ccc(Cl)c(Cl)c2)C(c2ccc(Cl)c(Cl)c2)=N1 [Compound 18] | 48% | – | – | –
15 | 3.1 µM | – | – | 2.6 µM | 4.1 µM | – | COc1cc(NC(=O)CSC2=NC3(CCN(C)CC3)N=C2c2ccc(C)cc2)ccc1Cl [Compound 19] | – | – | 68% | –
16 | 1.8 µM | – | – | 4 µM | 2.4 µM | – | COc1ccc(C2=NC3(CCN(C)CC3)N=C2SCC(=O)Nc2ccc(OC)c(Cl)c2)cc1 [Compound 20] | – | 54% | – | –
17 | 85 µM | – | – | 4.3 µM | 0.3 µM | – | COc1ccc(NC(=O)CSC2=NC3(CCN(C)CC3)N=C2c2ccc(F)cc2)cc1Cl [Compound 21] | – | 73% | – | –
18 | 0.8 µM | – | 0.2 µM | 0.3 µM | 2.3 µM | – | COc1ccc(NC(=O)CSC2=NC3(CCN(C)CC3)N=C2c2ccc(C(C)(C)C)cc2)cc1Cl [Compound 22] | – | – | 55% | –
19 | 2.2 µM | – | – | 5.3 µM | 5.4 µM | – | Cc1ccc(C2=NC3(CCN(C)CC3)N=C2SCC(=O)Nc2ccc3c(c2)OCCO3)cc1 [Compound 23] | 103% | – | – | –
20 | 5.4 µM | – | – | 4.3 µM | 7.6 µM | – | Cc1ccc(C2=NC3(CCN(C)CC3)N=C2SCC(=O)Nc2ccc3c(c2)OCO3)cc1 [Compound 24] | 72% | – | – | –
21 | 3.7 µM | – | 2.1 µM | 2.6 µM | 69.3 µM | – | Cc1ccc(C2=NC3(CCN(C)CC3)N=C2SCC(=O)Nc2ccc(F)c(F)c2)cc1 [Compound 25] | 78% | – | – | –
22 | 2.6 µM | – | – | 1.1 µM | 1.3 µM | – | CN1CCC2(CC1)N=C(SCC(=O)Nc1ccc(F)c(F)c1)C(c1ccc(Cl)cc1)=N2 [Compound 26] | 88% | – | – | –
23 | 19 µM | – | – | 8.8 µM | 4.1 µM | – | CN1CCC2(CC1)N=C(SCC(=O)Nc1ccc(F)c(F)c1)C(c1ccc(F)cc1)=N2 [Compound 27] | 76% | – | – | –
24 | 6.5 µM | – | – | 1 µM | 1.3 µM | – | CN1CCC2(CC1)N=C(SCC(=O)Nc1ccc(F)c(F)c1)C(c1ccc(C(C)(C)C)cc1)=N2 [Compound 28] | – | 15% | – | –
25 | 1.4 µM | – | – | 0.7 µM | 3.3 µM | – | CN1CCC2(CC1)N=C(SCC(=O)Nc1ccc(F)c(F)c1)C(c1ccc(Br)cc1)=N2 [Compound 29] | 89% | – | – | –
26 | 8 µM | – | – | 4 µM | 15 µM | – | Cc1ccc(C2=NC3(CCCCC3)N=C2SCC(=O)Nc2ccc(F)c(Cl)c2)cc1 [Compound 32] | 104% | – | – | –
27 | – | – | – | – | – | – | C=CC(=O)Nc1cc(Nc2nccc(-c3cn(C)c4ccccc34)n2)c(OC)cc1N(C)CCN(C)C [osimertinib, reference compound] | – | – | – | no difference

Row | Compound | IC50 (RKO cells) | IC50 (UM1 cells) | IC50 (UMCC92 cells) | IC50 (UM10B cells) | IC50 (MCR5 cells; MCR5, MCR5) | IC50 (MCR5 cells; MCR5) | viability at 30 µM (cells) | viability at 15 µM (cells) | viability at 7.5 µM (cells) | survival [1]
28 | COc1ccc(C2=NC3(CCNCC3)N(CC(=O)Nc3ccc(OC)c(Cl)c3)C2=O)cc1 [Compound 4, N-(3-chloro-4-methoxyphenyl)-2-(3-(4-methoxyphenyl)-2-oxo-1,4,8-triazaspiro[4.5]dec-3-en-1-yl)acetamide hydrochloride] | 7.6 µM | 1 µM | – | – | – | – | – | 61% | – | –
